In US10709783B2, “Neutron capture therapy system for eliminating amyloid β-protein” (NEUBORON MEDTECH LTD., priority 2015, dated 2020):
Like-named read-outs stand apart in the source and are kept apart here.

What was measured:
[1] = system: amyloid β-protein deposition plaques; assay: Micro-PET scan of brain uptake of ^11C-labelled compound in SAMP8 model mice and control mice; assay type: in vivo
Procedure: (§1) SAMP8 (senescence accelerated mouse prone 8) mice are the most common animal model of AD (Alzheimer's disease), in its brain there are a large number of amyloid deposition plaque. In this example, SAMP8 mice were used as model mice, and the normal mice were used as the control mice. Both the model mice and the control mice were 10 months old. The two mice were injected with 6-borono-2-(4-methylaminophenyl)benzothiazole containing ^11C labeling, and the Micro-PET scan is used to study whether 6-borono-2-(4-methylaminophenyl)benzothiazole and amyloid β-protein have specific binding properties. Model mice and control mice weighing 31.5±0.3 g were selected, 31.0±0.6 μCi of ^11C labelled 6-borono-2-(4-methylaminophenyl)benzothiazole were injected thereto, and Micro-PET of Model INVEON from Siemens were used for scan, where the scanning window was 350-650 KeV.
(§2) It is well known to those skilled in the art that the major cause of Alzheimer's disease is that the amyloid β-protein deposition plaques accumulate in the cerebral cortex and hippocampus of the brain. In this example, Micro-PET scanned and compared the brains of the model and control mice using PMOD software. And the absorption of radioactive 6-borono-2-(4-methylaminophenyl)benzothiazole in the cerebral cortex and hippocampus of SAMP8 model mice and control mice was determined, to further illustrate that the compound is capable of specifically binding to amyloid β-protein deposition plaques.

[2] = as above; assay type: in vivo; conditions: mouse, 31 μCi; for tissue uptake at 5 min: 5 min after injection; for tissue uptake at 15 min: 15 min after injection; for tissue uptake at 25 min: 25 min after injection; for tissue uptake at 35 min: 35 min after injection
Procedure: as §1, §2

[3] = cerebral cortex, other: injected (kind of injection not stated), SAMP8 model mice, read-out: Cerebral cortex uptake of radiopharmaceuticals, Model mice
[4] = cerebral cortex, other: injected (kind of injection not stated), normal control mice, read-out: Cerebral cortex uptake of radiopharmaceuticals, Control mice
[5] = hippocampus, other: injection (kind of injection not stated), SAMP8 model mice, read-out: hippocampus uptake of radiopharmaceuticals, Model mice
[6] = hippocampus, other: injection (kind of injection not stated), normal control mice, read-out: hippocampus uptake of radiopharmaceuticals, Control mice

CNc1ccc(-c2nc3ccc(B(O)O)cc3s2)cc1 [6-borono-2-(4-methylaminophenyl)benzothiazole]
Cerebral cortex uptake Ratio (model mice/control mice) ([1]; 5 min after injection): 1.9
hippocampus uptake Ratio (model mice/control mice) ([1]; 5 min after injection): 1.9
Cerebral cortex uptake Ratio (model mice/control mice) ([1]; 15 min after injection): 1.9
hippocampus uptake Ratio (model mice/control mice) ([1]; 15 min after injection): 2.3
Cerebral cortex uptake Ratio (model mice/control mice) ([1]; 25 min after injection): 2.4
hippocampus uptake Ratio (model mice/control mice) ([1]; 25 min after injection): 3.2
brain radiopharmaceutical absorption in PET image (FIG. 4), SAMP8 model mouse relative to control mice ([1]; 30 min after injection): accumulated a large amount of radiopharmaceuticals
Cerebral cortex uptake Ratio (model mice/control mice) ([1]; 35 min after injection): 2.7
hippocampus uptake Ratio (model mice/control mice) ([1]; 35 min after injection): 3.2
tissue uptake at 5 min [2, 3]: 3.03 %ID/g
tissue uptake at 15 min [2, 3]: 2.88 %ID/g
tissue uptake at 25 min [2, 3]: 2.79 %ID/g
tissue uptake at 35 min [2, 3]: 2.68 %ID/g
tissue uptake at 5 min [2, 4]: 1.61 %ID/g
tissue uptake at 15 min [2, 4]: 1.48 %ID/g
tissue uptake at 25 min [2, 4]: 1.17 %ID/g
tissue uptake at 35 min [2, 4]: 0.99 %ID/g
tissue uptake at 5 min [2, 5]: 3.44 %ID/g
tissue uptake at 15 min [2, 5]: 3.5 %ID/g
tissue uptake at 25 min [2, 5]: 3.45 %ID/g
tissue uptake at 35 min [2, 5]: 3.27 %ID/g
tissue uptake at 5 min [2, 6]: 1.8 %ID/g
tissue uptake at 15 min [2, 6]: 1.49 %ID/g
tissue uptake at 25 min [2, 6]: 1.09 %ID/g
tissue uptake at 35 min [2, 6]: 1.01 %ID/g
